From patent US20240109917A1 (ACTELION PHARMACEUTICALS LTD, priority 2020, published 2024) come the findings set out here.

Experiment [1] deals with His6-TEV-PDGFRβ (557-1016) (Homo sapiens (Human), UniProt P09619). The experiment in a line: PDGFRβ HTRF Assay. The settings on record: read-out: PDGFR HTRF IC50. The experiment is classed as biochemical. In short, it runs like this:
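Human PDGFRβ (557-1016) pre-incubated with compound for 30 min at RT in pH 7.5 HEPES/MgCl2/EGTA/Brij-35/DTT buffer. Reaction started with ATP and TK-biotin peptide, run 3 h at RT, then quenched with EDTA-containing Eu-cryptate antibody/streptavidin-XL665. HTRF 665/620 nm ratio read after 60 min; percent inhibition relative to DMSO and 10 μM imatinib controls.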
For orientation: Time-resolved FRET reads energy transfer from a long-lived donor to a nearby acceptor.

A further experiment concerns the target VEGFR2, unphosphorylated (Homo sapiens (Human), UniProt P35968). The experiment in a line: VEGFR ADP GLO Assay. The experiment is classed as biochemical. Background: In ADP-Glo the light output rises with the ADP produced.

pIC50: −log10 of the molar value.

His6-TEV-PDGFRβ (557-1016), sequence (P09619 557-1016): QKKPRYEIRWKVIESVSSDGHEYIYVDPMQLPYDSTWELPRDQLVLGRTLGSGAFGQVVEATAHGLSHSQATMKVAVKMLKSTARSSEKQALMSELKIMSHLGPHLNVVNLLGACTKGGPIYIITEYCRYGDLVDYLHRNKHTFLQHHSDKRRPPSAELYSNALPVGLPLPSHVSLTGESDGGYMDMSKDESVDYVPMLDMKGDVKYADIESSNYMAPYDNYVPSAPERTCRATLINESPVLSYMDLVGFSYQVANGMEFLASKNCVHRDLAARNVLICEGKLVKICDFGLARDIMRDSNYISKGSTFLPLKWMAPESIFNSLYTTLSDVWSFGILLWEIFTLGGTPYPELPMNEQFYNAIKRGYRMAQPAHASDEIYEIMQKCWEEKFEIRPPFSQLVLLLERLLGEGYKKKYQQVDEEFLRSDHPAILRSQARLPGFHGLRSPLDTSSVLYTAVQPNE
VEGFR2, unphosphorylated, sequence (P35968 20-1356): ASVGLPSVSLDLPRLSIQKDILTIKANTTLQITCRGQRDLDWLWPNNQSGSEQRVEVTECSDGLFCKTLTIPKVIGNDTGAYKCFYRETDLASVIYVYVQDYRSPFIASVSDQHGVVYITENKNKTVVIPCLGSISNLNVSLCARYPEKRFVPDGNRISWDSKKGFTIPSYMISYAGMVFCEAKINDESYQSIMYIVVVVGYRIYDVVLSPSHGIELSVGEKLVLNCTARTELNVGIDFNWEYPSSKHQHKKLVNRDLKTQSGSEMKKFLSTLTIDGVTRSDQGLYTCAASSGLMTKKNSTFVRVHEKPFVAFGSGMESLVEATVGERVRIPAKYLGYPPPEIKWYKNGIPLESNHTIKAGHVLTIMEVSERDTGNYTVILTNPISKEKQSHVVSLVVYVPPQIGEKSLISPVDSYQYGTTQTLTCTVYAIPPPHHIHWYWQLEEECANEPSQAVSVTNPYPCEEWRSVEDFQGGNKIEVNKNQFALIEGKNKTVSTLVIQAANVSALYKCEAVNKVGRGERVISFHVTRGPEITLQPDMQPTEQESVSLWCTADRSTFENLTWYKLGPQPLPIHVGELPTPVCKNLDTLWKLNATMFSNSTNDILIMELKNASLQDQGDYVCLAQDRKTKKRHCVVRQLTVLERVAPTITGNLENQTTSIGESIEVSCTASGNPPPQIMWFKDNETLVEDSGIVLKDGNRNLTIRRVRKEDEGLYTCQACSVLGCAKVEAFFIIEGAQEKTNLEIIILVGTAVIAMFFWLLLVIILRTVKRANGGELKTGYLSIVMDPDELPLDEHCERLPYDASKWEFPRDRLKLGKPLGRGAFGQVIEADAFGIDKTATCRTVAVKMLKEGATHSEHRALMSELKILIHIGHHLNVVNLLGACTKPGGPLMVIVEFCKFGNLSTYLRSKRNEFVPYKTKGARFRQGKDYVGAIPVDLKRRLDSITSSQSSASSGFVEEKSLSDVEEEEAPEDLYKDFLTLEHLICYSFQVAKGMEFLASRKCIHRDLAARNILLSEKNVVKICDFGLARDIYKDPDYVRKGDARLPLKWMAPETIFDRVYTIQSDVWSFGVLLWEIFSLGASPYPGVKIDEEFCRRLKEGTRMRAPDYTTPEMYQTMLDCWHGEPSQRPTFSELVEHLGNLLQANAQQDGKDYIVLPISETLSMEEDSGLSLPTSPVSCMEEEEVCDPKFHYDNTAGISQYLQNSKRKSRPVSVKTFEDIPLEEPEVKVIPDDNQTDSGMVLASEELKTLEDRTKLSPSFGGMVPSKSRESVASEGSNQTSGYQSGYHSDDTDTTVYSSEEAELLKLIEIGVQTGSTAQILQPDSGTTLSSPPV

Take `Cc1ncc(NC(=O)NCCC2CCN(C)CC2)cc1NC(=O)c1cnn2cc(-c3cnn(C)c3)sc12` [Example 108, 2-(1-methyl-1H-pyrazol-4-yl)-N-(2-methyl-5-(3-(2-(1-methylpiperidin-4-yl)ethyl)ureido)pyridin-3-yl)pyrazolo[5,1-b]thiazole-7-carboxamide]: the pIC50 in experiment [1] was 7.97; on VEGFR2, unphosphorylated, less than 5.60.

In the case of `Cc1ncc(NC(=O)NCC2CCN(C(C)C)CC2)cc1NC(=O)c1cnn2cc(-c3cnn(C)c3)sc12` [Example 109, N-(5-(3-((1-isopropylpiperidin-4-yl)methyl)ureido)-2-methylpyridin-3-yl)-2-(1-methyl-1H-pyrazol-4-yl)pyrazolo[5,1-b]thiazole-7-carboxamide], the pIC50 in experiment [1] was 7.41; against VEGFR2, unphosphorylated, less than 5.12.

For `Cc1ncc(C(=O)NCCN2CCOCC23CC3)cc1NC(=O)c1cnn2cc(-c3cnn(C)c3)sc12` [Example 110, N-(5-((2-(7-oxa-4-azaspiro[2.5]octan-4-yl)ethyl)carbamoyl)-2-methylpyridin-3-yl)-2-(1-methyl-1H-pyrazol-4-yl)pyrazolo[5,1-b]thiazole-7-carboxamide], the pIC50 was 9.22 in experiment [1] and 6.18 on VEGFR2, unphosphorylated.

With `Cc1ncc(C(=O)NCCN2Cc3ncsc3C2)cc1NC(=O)c1cnn2cc(-c3cnn(C)c3)sc12` [Example 111, N-(5-((2-(4H-pyrrolo[3,4-d]thiazol-5 (6H)-yl)ethyl)carbamoyl)-2-methylpyridin-3-yl)-2-(1-methyl-1H-pyrazol-4-yl)pyrazolo[5,1-b]thiazole-7-carboxamide], the pIC50 in experiment [1] was 8.96; at VEGFR2, unphosphorylated, less than 5.12.

Consider `Cc1ncc(C(=O)NCCN2CC3COCC3C2)cc1NC(=O)c1cnn2cc(-c3cnn(C)c3)sc12` (stereo not drawn) [Example 112, 2-(1-methyl-1H-pyrazol-4-yl)-N-(2-methyl-5-((2-(tetrahydro-1H-furo[3,4-c]pyrrol-5 (3H)-yl)ethyl)carbamoyl)pyridin-3-yl)pyrazolo[5,1-b]thiazole-7-carboxamide], for which the pIC50 is 9.30 in experiment [1] and less than 5.12 against VEGFR2, unphosphorylated.

In the case of `Cc1ncc(C(=O)NCCN2CCC3(CCC3)C2)cc1NC(=O)c1cnn2cc(-c3cnn(C)c3)sc12` [Example 113, N-(5-((2-(6-azaspiro[3.4]octan-6-yl)ethyl)carbamoyl)-2-methylpyridin-3-yl)-2-(1-methyl-1H-pyrazol-4-yl)pyrazolo[5,1-b]thiazole-7-carboxamide], the pIC50 in experiment [1] is more than 10.00; on VEGFR2, unphosphorylated, less than 5.12.

In the case of `Cc1ncc(C(=O)NCCN2CCCC23COC3)cc1NC(=O)c1cnn2cc(-c3cnn(C)c3)sc12` [Example 114, N-(5-((2-(2-oxa-5-azaspiro[3.4]octan-5-yl)ethyl)carbamoyl)-2-methylpyridin-3-yl)-2-(1-methyl-1H-pyrazol-4-yl)pyrazolo[5,1-b]thiazole-7-carboxamide], the pIC50 in experiment [1] was 9.40; at VEGFR2, unphosphorylated, less than 5.12.

For `COCCN(CCNC(=O)c1cnc(C)c(NC(=O)c2cnn3cc(-c4cnn(C)c4)sc23)c1)C1CCC1` [Example 115, N-(5-((2-(cyclobutyl(2-methoxyethyl)amino)ethyl)carbamoyl)-2-methylpyridin-3-yl)-2-(1-methyl-1H-pyrazol-4-yl)pyrazolo[5,1-b]thiazole-7-carboxamide], the pIC50 in experiment [1] is 9.40; against VEGFR2, unphosphorylated, less than 5.12.

In the case of `Cc1ncc(C(=O)NCCN2CCC3(CCOC3)C2)cc1NC(=O)c1cnn2cc(-c3cnn(C)c3)sc12` (stereo not drawn) [Example 116, N-(5-((2-(2-oxa-7-azaspiro[4.4]nonan-7-yl)ethyl)carbamoyl)-2-methylpyridin-3-yl)-2-(1-methyl-1H-pyrazol-4-yl)pyrazolo[5,1-b]thiazole-7-carboxamide], the pIC50 in experiment [1] is 9.30; against VEGFR2, unphosphorylated, less than 5.12.

For the compound `Cc1ncc(C(=O)NCCN2CCOCC23CCC3)cc1NC(=O)c1cnn2cc(-c3cnn(C)c3)sc12` [Example 117, N-(5-((2-(8-oxa-5-azaspiro[3.5]nonan-5-yl)ethyl)carbamoyl)-2-methylpyridin-3-yl)-2-(1-methyl-1H-pyrazol-4-yl)pyrazolo[5,1-b]thiazole-7-carboxamide], the pIC50 in experiment [1] was 9.40; against VEGFR2, unphosphorylated it was less than 5.12.

Regarding `Cc1ncc(C(=O)NCCN2CCC3(CC3)C2)cc1NC(=O)c1cnn2cc(-c3cnn(C)c3)sc12` [Example 118, N-(5-((2-(5-azaspiro[2.4]heptan-5-yl)ethyl)carbamoyl)-2-methylpyridin-3-yl)-2-(1-methyl-1H-pyrazol-4-yl)pyrazolo[5,1-b]thiazole-7-carboxamide], the pIC50 in experiment [1] was 9.52; on VEGFR2, unphosphorylated, less than 5.12.

On to `Cc1ncc(C(=O)NCCN2CCC(F)(F)CC2)cc1NC(=O)c1cnn2cc(-c3cnn(C)c3)sc12` [Example 119, N-(5-((2-(4,4-difluoropiperidin-1-yl)ethyl)carbamoyl)-2-methylpyridin-3-yl)-2-(1-methyl-1H-pyrazol-4-yl)pyrazolo[5,1-b]thiazole-7-carboxamide], for which the pIC50 in experiment [1] is 9.52; on VEGFR2, unphosphorylated, less than 5.12.

In the case of `Cc1ncc(C(=O)NCCN2CCC(F)(F)C2)cc1NC(=O)c1cnn2cc(-c3cnn(C)c3)sc12` [Example 120, N-(5-((2-(3,3-difluoropyrrolidin-1-yl)ethyl)carbamoyl)-2-methylpyridin-3-yl)-2-(1-methyl-1H-pyrazol-4-yl)pyrazolo[5,1-b]thiazole-7-carboxamide], the pIC50 in experiment [1] was 9.40; at VEGFR2, unphosphorylated it was less than 5.12.

With `Cc1ncc(C(=O)NCCN2CCCOCC2)cc1NC(=O)c1cnn2cc(-c3cnn(C)c3)sc12` [Example 121, N-(5-((2-(1,4-oxazepan-4-yl)ethyl)carbamoyl)-2-methylpyridin-3-yl)-2-(1-methyl-1H-pyrazol-4-yl)pyrazolo[5,1-b]thiazole-7-carboxamide], the pIC50 in experiment [1] is 9.40; at VEGFR2, unphosphorylated, less than 5.12.

On to `Cc1ncc(C(=O)NCCN2C3CCC2COC3)cc1NC(=O)c1cnn2cc(-c3cnn(C)c3)sc12` [Example 122, N-(5-((2-(3-oxa-8-azabicyclo[3.2.1]octan-8-yl)ethyl)carbamoyl)-2-methylpyridin-3-yl)-2-(1-methyl-1H-pyrazol-4-yl)pyrazolo[5,1-b]thiazole-7-carboxamide], for which the pIC50 in experiment [1] is 9.52; against VEGFR2, unphosphorylated it was less than 5.12.

Regarding `Cc1ncc(C(=O)NCCN2CCCC(F)(F)C2)cc1NC(=O)c1cnn2cc(-c3cnn(C)c3)sc12` [Example 123, N-(5-((2-(3,3-difluoropiperidin-1-yl)ethyl)carbamoyl)-2-methylpyridin-3-yl)-2-(1-methyl-1H-pyrazol-4-yl)pyrazolo[5,1-b]thiazole-7-carboxamide], the pIC50 in experiment [1] is 9.52; at VEGFR2, unphosphorylated it was less than 5.12.

For the compound `Cc1ncc(C(=O)NCCN2CC3(CCC3)C2)cc1NC(=O)c1cnn2cc(-c3cnn(C)c3)sc12` [Example 124, N-(5-((2-(2-azaspiro[3.3]heptan-2-yl)ethyl)carbamoyl)-2-methylpyridin-3-yl)-2-(1-methyl-1H-pyrazol-4-yl)pyrazolo[5,1-b]thiazole-7-carboxamide], the pIC50 in experiment [1] is 9.22; at VEGFR2, unphosphorylated, less than 5.12.

For `Cc1ncc(C(=O)NCCN2CC(F)(F)C2)cc1NC(=O)c1cnn2cc(-c3cnn(C)c3)sc12` [Example 125, N-(5-((2-(3,3-difluoroazetidin-1-yl)ethyl)carbamoyl)-2-methylpyridin-3-yl)-2-(1-methyl-1H-pyrazol-4-yl)pyrazolo[5,1-b]thiazole-7-carboxamide], the pIC50 in experiment [1] was 9.52; against VEGFR2, unphosphorylated it was less than 5.12.

As a reminder, the pIC50 is the IC50 on a negative log10 scale, so that one unit is a factor of ten.
